# Test results: patent US20250340519A1, “RADIOLABELLED COMPOUND” (OXFORD UNIVERSITY INNOVATION LIMITED, priority 2018, published 2025)
# Values joined by “and” are separate entries in the source; they are usually repeats but may differ in a detail not shown here. Identical values can stand only once.
# Legend:
# Panc-1 xenograft = assay: Ex vivo biodistribution in Panc-1 xenograft bearing mice; conditions: Panc-1 xenograft mice, 1 h p.i., individual animals
# Capan-1 xenograft = assay: Ex vivo biodistribution in Capan-1 xenograft bearing mice; conditions: for Ex vivo biodistribution Bone / Ex vivo biodistribution Kidney / Ex vivo biodistribution Large intestine / Ex vivo biodistribution Liver / Ex vivo biodistribution Muscle / Ex vivo biodistribution Pancreas / Ex vivo biodistribution Skin / Ex vivo biodistribution Small intestine / Ex vivo biodistribution Spleen / Ex vivo biodistribution Stomach: Capan-1 xenograft mice, 1 h p.i., individual animals; for tumour uptake (group mean): Capan-1 xenografts
# Procedure: All animal procedures were performed in accordance with the UK Animals (Scientific Procedures) Act 1986 and with local ethical committee approval. Animals were housed in IVC cages in sex-matched groups up to 5 per cage, in an artificial day-night cycle facility, with ad libitum access to food and water. Tumour xenografts or allografts were generated by subcutaneous injection of PANC-1 or Capan-1 cell suspensions in the hind flank of balb/c nu/nu animals. CaNT xenografts were generated by harvesting CaNT tumours from donor animals, and injecting a tumour homogenate subcutaneously in the flank of wild type CBA/Carl mice. Tumours were irradiated (10 Gy, 2 Gy/min) using a 300 kV X-ray device.
# Dynamic PET/CT images were acquired following an intravenous bolus administration of [^18F]-olaparib. Biodistribution studies, where selected tissues were harvested, were performed 1 h post injection. Some animals were also administered an excess of cold, unlabelled olaparib for evaluating the specificity of tumour uptake. EF5, a hypoxia-selective marker, was injected 2 h before culling of the animal. Digital autoradiography was performed on tumour sections. Image analysis was performed using PMOD.
# Cells were harvested using trypsin, washed twice using PBS, and reconstituted in DMEM. Panc-1 or Capan-1 xenograft tumours were established in the right hind flank of female NOD/SCID mice (Charles River, UK) by subcutaneous injection of 1×10^6 cells in PBS:matrigel (150 μL). Tumour volumes (V) were calculated after calliper measurement using the following equation: V=(a^2×b)/2, where a is the width of the tumour and b the length (small and large diameters, respectively). The individual relative tumour volume (RTV) was defined as Vt/Vo, where Vt is the volume at a given time and Vo at the start of treatment. Animals were entered in in vivo studies when their tumour was at least 200 mm^3.
# Two hours prior to PET/CT imaging, animals were exposed to X-irradiation of the tumour (10 Gy or sham) (see schedule in FIG. 13). Radiation was delivered using a Gulmay 320 kV X-irradiator; 2.0 Gy/min. Anaesthesia was maintained at 2.5% isoflurane throughout the duration of the irradiation, and animals were allowed to recover. To study the relationship of PARP1 expression, ^18F-olaparib uptake and hypoxia, animals were administered 0.6 μg in 200 μL (0.9% saline) intraperitoneally, one hour prior to PET/CT imaging. Naïve CBA/Carl mice, not bearing tumours, were not irradiated, nor was EF5 administered.
# Dynamic PET/CT images were acquired using a VECTor ^4CT integrated PET/CT system. Mice were anaesthetised by 4% isoflurane gas (0.5 L/min O2) and placed on a custom-built imaging cradle in a prone position. Animals mice were intravenously injected with [^18F]-olaparib or (3-5 MBq, 8-11 GBq/μmol, through a tail vein catheter, and dynamic imaging was performed over 45-60 min after radiolabelled compound administration. PET acquisition (150 s per frame, using list mode acquisition) using an ultra-high resolution rat/mouse 1.8 mm collimator, followed by a cone-beam CT scan (55 kV, 0.19 mA) for anatomical reference and attenuation correction. Anaesthesia was maintained at 2.5% isoflurane throughout the duration of the image acquisition. PET images were reconstructed using U-SPECT-Rec3.22 software (MILabs, Utrecht, The Netherlands), applying a pixel-based algorithm with 8 subsets, 6 iterations and 0.8 mm voxel size for ^18F (energy window settings 477.9-584.1 keV).
# After PET/CT image acquisition, animals were euthanized by cervical dislocation and selected organs, tissues and blood were removed. The amount of radioactivity in each organ was measured using a 2480 WIZARD^2 gamma counter (PerkinElmer). Counts per minute were converted into MBq using a calibration curve generated from known standards. Values were decay-corrected to the time of injection, and the percentage of the injected dose per gram (% ID/g) of each tissue was calculated.
# [1] = Dynamic PET blood clearance in naïve CBA/Carl mice; assay type: in vivo; conditions: i.v. 3 MBq
smiles,measurement,setting,value
O=C(c1cc(Cc2n[nH]c(=O)c3ccccc23)ccc1[18F])N1CCN(C(=O)C2CC2)CC1 [[^18F]olaparib],Ex vivo biodistribution Kidney,Panc-1 xenograft; + IR (10 Gy),10.0 % ID/g and 9.25 % ID/g and 10.6 % ID/g
same,Ex vivo biodistribution Large intestine,Panc-1 xenograft; + IR (10 Gy),27.5 % ID/g and 28.9 % ID/g and 16.2 % ID/g
same,Ex vivo biodistribution Liver,Panc-1 xenograft; + IR (10 Gy),25.1 % ID/g and 33.8 % ID/g and 45.7 % ID/g
same,Ex vivo biodistribution Pancreas,Panc-1 xenograft; + IR (10 Gy),13.6 % ID/g and 10.3 % ID/g and 11.4 % ID/g
same,Ex vivo biodistribution Spleen,Panc-1 xenograft; + IR (10 Gy),45.0 % ID/g and 20.5 % ID/g and 14.3 % ID/g
same,Ex vivo biodistribution Stomach,Panc-1 xenograft; + IR (10 Gy),4.15 % ID/g and 0.92 % ID/g and 0.87 % ID/g
same,Ex vivo biodistribution Bone,Panc-1 xenograft; + block (excess cold olaparib),1.06 % ID/g and 0.78 % ID/g and 0.80 % ID/g and 0.46 % ID/g
same,Ex vivo biodistribution Kidney,Panc-1 xenograft; + block (excess cold olaparib),13.1 % ID/g and 5.09 % ID/g and 3.98 % ID/g and 2.44 % ID/g
same,Ex vivo biodistribution Large intestine,Panc-1 xenograft; + block (excess cold olaparib),20.1 % ID/g and 13.3 % ID/g and 61.4 % ID/g and 12.7 % ID/g
same,Ex vivo biodistribution Liver,Panc-1 xenograft; + block (excess cold olaparib),29.1 % ID/g and 32.9 % ID/g and 22.4 % ID/g and 23.1 % ID/g
same,Ex vivo biodistribution Pancreas,Panc-1 xenograft; + block (excess cold olaparib),1.92 % ID/g and 2.29 % ID/g and 1.91 % ID/g and 1.79 % ID/g
same,Ex vivo biodistribution Small intestine,Panc-1 xenograft; + block (excess cold olaparib),89.9 % ID/g and 77.2 % ID/g and 96.4 % ID/g and 132 % ID/g
same,Ex vivo biodistribution Spleen,Panc-1 xenograft; + block (excess cold olaparib),1.62 % ID/g and 1.46 % ID/g and 1.24 % ID/g and 0.69 % ID/g
same,Ex vivo biodistribution Stomach,Panc-1 xenograft; + block (excess cold olaparib),1.44 % ID/g and 0.79 % ID/g and 0.46 % ID/g and 0.21 % ID/g
same,Ex vivo biodistribution Bone,Panc-1 xenograft; tracer alone,3.38 % ID/g and 4.54 % ID/g
same,Ex vivo biodistribution Kidney,Panc-1 xenograft; tracer alone,10.5 % ID/g and 7.95 % ID/g and 6.02 % ID/g and 7.04 % ID/g and 3.41 % ID/g and 3.66 % ID/g
same,Ex vivo biodistribution Large intestine,Panc-1 xenograft; tracer alone,12.6 % ID/g and 30.5 % ID/g and 80.8 % ID/g and 27.0 % ID/g and 28.9 % ID/g and 6.61 % ID/g
same,Ex vivo biodistribution Liver,Panc-1 xenograft; tracer alone,26.2 % ID/g and 34.6 % ID/g and 27.0 % ID/g and 21.0 % ID/g and 13.5 % ID/g and 18.0 % ID/g
same,Ex vivo biodistribution Pancreas,Panc-1 xenograft; tracer alone,8.49 % ID/g and 9.38 % ID/g and 7.25 % ID/g and 5.52 % ID/g and 2.78 % ID/g and 4.24 % ID/g
same,Ex vivo biodistribution Small intestine,Panc-1 xenograft; tracer alone,54.5 % ID/g and 58.1 % ID/g and 30.6 % ID/g and 31.9 % ID/g and 18.6 % ID/g and 26.6 % ID/g
same,Ex vivo biodistribution Spleen,Panc-1 xenograft; tracer alone,17.5 % ID/g and 13.7 % ID/g and 11.3 % ID/g and 14.0 % ID/g and 7.36 % ID/g and 8.01 % ID/g
same,Ex vivo biodistribution Stomach,Panc-1 xenograft; tracer alone,2.59 % ID/g and 3.53 % ID/g and 1.81 % ID/g and 1.80 % ID/g and 0.55 % ID/g and 0.60 % ID/g
same,Ex vivo biodistribution Bone,Capan-1 xenograft; + IR (10 Gy),0.31 % ID/g and 0.16 % ID/g and 0.19 % ID/g
same,Ex vivo biodistribution Kidney,Capan-1 xenograft; + IR (10 Gy),4.66 % ID/g and 1.03 % ID/g and 3.67 % ID/g
same,Ex vivo biodistribution Large intestine,Capan-1 xenograft; + IR (10 Gy),5.21 % ID/g and 3.30 % ID/g and 5.86 % ID/g
same,Ex vivo biodistribution Liver,Capan-1 xenograft; + IR (10 Gy),9.16 % ID/g and 5.93 % ID/g and 6.67 % ID/g
same,Ex vivo biodistribution Muscle,Capan-1 xenograft; + IR (10 Gy),0.63 % ID/g and 0.29 % ID/g and 0.48 % ID/g
same,Ex vivo biodistribution Pancreas,Capan-1 xenograft; + IR (10 Gy),1.89 % ID/g and 1.59 % ID/g and 1.84 % ID/g
same,Ex vivo biodistribution Skin,Capan-1 xenograft; + IR (10 Gy),0.67 % ID/g and 0.23 % ID/g and 0.33 % ID/g
same,Ex vivo biodistribution Small intestine,Capan-1 xenograft; + IR (10 Gy),15.58 % ID/g and 9.80 % ID/g and 19.97 % ID/g
same,Ex vivo biodistribution Spleen,Capan-1 xenograft; + IR (10 Gy),0.77 % ID/g and 0.73 % ID/g and 0.82 % ID/g
same,Ex vivo biodistribution Stomach,Capan-1 xenograft; + IR (10 Gy),0.38 % ID/g and 0.36 % ID/g and 0.64 % ID/g
same,Ex vivo biodistribution Bone,Capan-1 xenograft; + block (excess cold olaparib),2.17 % ID/g and 0.47 % ID/g and 1.27 % ID/g
same,Ex vivo biodistribution Kidney,Capan-1 xenograft; + block (excess cold olaparib),4.16 % ID/g and 1.26 % ID/g and 3.32 % ID/g
same,Ex vivo biodistribution Large intestine,Capan-1 xenograft; + block (excess cold olaparib),5.00 % ID/g and 2.91 % ID/g and 4.06 % ID/g
same,Ex vivo biodistribution Liver,Capan-1 xenograft; + block (excess cold olaparib),9.79 % ID/g and 3.62 % ID/g and 6.88 % ID/g
same,Ex vivo biodistribution Muscle,Capan-1 xenograft; + block (excess cold olaparib),0.88 % ID/g and 0.28 % ID/g and 0.65 % ID/g
same,Ex vivo biodistribution Pancreas,Capan-1 xenograft; + block (excess cold olaparib),10.22 % ID/g and 4.56 % ID/g and 10.82 % ID/g
same,Ex vivo biodistribution Skin,Capan-1 xenograft; + block (excess cold olaparib),1.16 % ID/g
same,Ex vivo biodistribution Small intestine,Capan-1 xenograft; + block (excess cold olaparib),46.04 % ID/g and 0.45 % ID/g and 11.70 % ID/g
same,Ex vivo biodistribution Spleen,Capan-1 xenograft; + block (excess cold olaparib),6.43 % ID/g and 2.80 % ID/g and 7.93 % ID/g
same,Ex vivo biodistribution Stomach,Capan-1 xenograft; + block (excess cold olaparib),0.94 % ID/g and 0.30 % ID/g and 0.49 % ID/g
same,Ex vivo biodistribution Bone,Capan-1 xenograft; tracer alone,1.46 % ID/g and 0.98 % ID/g and 1.26 % ID/g and 3.08 % ID/g
same,Ex vivo biodistribution Kidney,Capan-1 xenograft; tracer alone,4.32 % ID/g and 2.05 % ID/g and 4.91 % ID/g and 5.22 % ID/g
same,Ex vivo biodistribution Large intestine,Capan-1 xenograft; tracer alone,4.99 % ID/g and 4.50 % ID/g and 4.14 % ID/g and 8.14 % ID/g
same,Ex vivo biodistribution Liver,Capan-1 xenograft; tracer alone,11.78 % ID/g and 5.79 % ID/g and 10.32 % ID/g and 22.63 % ID/g
same,Ex vivo biodistribution Muscle,Capan-1 xenograft; tracer alone,0.65 % ID/g and 0.45 % ID/g and 0.63 % ID/g and 1.44 % ID/g
same,Ex vivo biodistribution Pancreas,Capan-1 xenograft; tracer alone,9.32 % ID/g and 8.12 % ID/g and 7.87 % ID/g and 13.16 % ID/g
same,Ex vivo biodistribution Skin,Capan-1 xenograft; tracer alone,0.02 % ID/g and 0.55 % ID/g and 0.77 % ID/g and 1.54 % ID/g
same,Ex vivo biodistribution Small intestine,Capan-1 xenograft; tracer alone,12.27 % ID/g and 17.29 % ID/g and 11.58 % ID/g and 13.70 % ID/g
same,Ex vivo biodistribution Spleen,Capan-1 xenograft; tracer alone,9.84 % ID/g and 6.13 % ID/g and 8.40 % ID/g and 15.10 % ID/g
same,Ex vivo biodistribution Stomach,Capan-1 xenograft; tracer alone,1.55 % ID/g and 0.63 % ID/g and 1.14 % ID/g and 3.42 % ID/g
same,tumour uptake (group mean),Capan-1 xenograft; excess cold olaparib,1.00±0.17
same,tumour uptake (group mean),Capan-1 xenograft; tracer alone,2.59±0.32 % ID/g
same,clearance pattern,[1]; dynamic PET,hepatobilliary
same,weighted blood half-life,[1],19.3 min
same,blood clearance fast half-life,"[1]; biphasic fit, fast phase (44%)",2.8 min
same,blood clearance slow half-life,"[1]; biphasic fit, slow phase (56%)",32.3 min
